Results on two compounds are retold here after paper PMC7385938 (Cell Stress & Chaperones, 2020).

The target in this test is HSPA5-FL (Homo sapiens, UniProt P11021). Briefly: ITC, liposomes titrated into protein. The format is binding. (In general: Isothermal titration calorimetry measures the heat released or taken up as one component is titrated into another.)

What is called Kd is the equilibrium constant for the complex coming apart.

Sequence of HSPA5-FL (P11021 25-654): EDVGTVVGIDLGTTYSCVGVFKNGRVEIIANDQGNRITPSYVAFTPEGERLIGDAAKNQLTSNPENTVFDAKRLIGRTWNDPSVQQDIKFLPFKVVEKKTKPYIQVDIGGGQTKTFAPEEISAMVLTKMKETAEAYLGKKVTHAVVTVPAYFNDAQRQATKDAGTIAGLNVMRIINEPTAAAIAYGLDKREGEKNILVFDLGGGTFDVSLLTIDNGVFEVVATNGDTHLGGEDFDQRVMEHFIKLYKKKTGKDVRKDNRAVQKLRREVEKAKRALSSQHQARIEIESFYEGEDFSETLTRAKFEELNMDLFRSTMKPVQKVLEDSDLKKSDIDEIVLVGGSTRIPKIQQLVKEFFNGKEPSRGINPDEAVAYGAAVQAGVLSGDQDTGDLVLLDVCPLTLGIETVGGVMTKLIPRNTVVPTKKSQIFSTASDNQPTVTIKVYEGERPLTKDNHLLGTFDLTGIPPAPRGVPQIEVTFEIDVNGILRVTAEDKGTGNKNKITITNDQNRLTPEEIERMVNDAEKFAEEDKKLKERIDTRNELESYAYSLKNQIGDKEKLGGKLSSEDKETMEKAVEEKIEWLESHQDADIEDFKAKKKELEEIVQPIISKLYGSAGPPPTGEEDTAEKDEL

As to `CCCCCCCCCCCCCC(=O)OC[C@H](COP(=O)(O)OCC(O)COP(=O)(O)OC[C@@H](COC(=O)CCCCCCCCCCCCC)OC(=O)CCCCCCCCCCCCC)OC(=O)CCCCCCCCCCCCC` (some centres unmarked) [CL, 1′,3′-bis[1,2-dimyristoyl-sn-glycero-3-phospho]-glycerol], the affinity, expressed as Kd, was 1.6 ± 0.5 µM.
Next, `CCCCCCCC/C=C\CCCCCCCC(=O)O[C@H](COC(=O)CCCCCCCCCCCCCCC)COP(=O)(O)OC[C@H](N)C(=O)O` [POPS]: 3.5 ± 0.8 µM.
